These results are taken from US20130177921A1, “Detection of Damage to DNA” (priority 2010, published 2013).

Each structure is given as a SMILES string.

Experiment [1] deals with MCF7 human breast cancer cells. The experiment in a line: Dox-induced DNA damage (AP sites) in MCF7 cells used as surrogate CTCs, extended DNA fibers. The format is cell-based. The source says: MCF7 cells were exposed to Doxorubicin (Dox) in culture (1) or exposed to Dox in culture and then processed using the Mag Sweeper Oft MCF7 cells processed identically but not treated with Dox served as controls in each case. Cells were next were recovered, put onto slides and lysed and DNA extended
MCF7 cells were exposed to Doxorubicin (Dox) alone (first three bars) or exposed to Dox first then isolated using Mag Sweeper (fourth, filth, sixth bars). Thereafter. DNA was extended on slides following cell lysis and DNA and sites of DNA damage were stained with fluorescent probes Images of extended fluorescently-labeled DNA fibers were obtained and DNA content and DNA damage site number were determined by computer analysis of the images. Results of the analysis of DNA damage in the bars is reported with the ordinate of the graph scaled as the number of DNA damage sites, in this case AP sites, per 10^6 nucleotides in length
In an initial study, MCF7 human breast cancer cells, a line of human breast adenocarcinoma, were used to simulated CTCs. The “simulated CTCs” were exposed to 0, 0.33, and 0.66 μM doxorubicin (Dox). Doxorubicin is a principal chemotherapeutic agent for breast cancer and the doses of the drug were chosen to approximate dose levels achieved in patients. In one experiment, untreated cells and cells treated with Dox were harvested 16 hours after starting sham or drug treatment and slides of extended DNA were prepared from the untreated and treated cells. The amount of DNA damage for each treatment condition was then determined. This experiment was designed to test whether drug exposure of the cells alone increased DNA damage in the form of abasic (AP) sites (FIG. 13, upper path). Next, untreated cells and cells treated with Dox were collected 16 hours after starting sham or drug treatment. The cells were subjected to a CTC isolation technique referred to as the ‘Mag Sweeper’ process (15) and the recovered cells' DNA harvested and placed on slides to extend the DNA and then the DNA analyzed for damage as described herein ([…], lower path).

Experiment [2] has as its system DT40 cells. As to conditions: H2O2-treated versus untreated cells. As to the method:
(§1) Avian DT40 cells (38, 39) were grown at 39.5° C., the normal Avian body temperature, in a humidified atmosphere supplemented with 5% CO2 as a suspension in RPMI-1640 (Invitrogen) supplemented with 10% fetal bovine serum (Sigma), 1% chicken serum (Sigma and Invitrogen), and containing 100 μg/ml penicillin and 100 μg/ml streptomycin (Invitrogen).

Experiment [3] deals with DT40 cells. As to conditions: cells exposed to 20 μM H2O2. As to the method:
as §1
DNA was isolated from DT40 cells in normal culture conditions or DT40 cells experiencing oxidative stress and processed for slot-blot analysis as described previously (2).

The test system of experiment [4] is DT40 cells.
Protocol: Briefly, cells growing in culture were first labeled for 10 min in medium with 100 μM iododeoxyurine (IdU), and then centrifuged to remove the medium containing IdU. […] After exposure to the second halogenated nucleotide, the cells were harvested by centrifugation and resuspended in ice cold PBS at about 200 cells/μl.
For the detection of IdU and CIdU within the DNA fiber spreads, the slides were treated with 2.5 M HCl for 30 min, washed several times in PBS, and blocked in 3% bovine serum albumin in PBS for 60 min. […]
To determine the number of nt that had been replicated (i.e., incorporated IdU or CIdU) in normal culture conditions, the total amount of fluorescence from both IdU and CIdU was measured. The number of AP sites co-localized in areas where DNA had replicated was assessed using the co-localization function provided by Image J. In this series of experiments, AP sites were marked by blue signal and those that co-localized with areas undergoing replication were counted using the particle counter function of Image J. To determine the amount of replicating DNA expressed in nt, the total amount of red and green fluorescence (IdU and CIdU, respectively) was determined and then divided by fluorescence intensity per nt, as described above.
To determine the number of AP sites per unit length of DNA in areas undergoing replication, cells were first pulsed with IdU (a nucleotide precursor), and then pulsed with CIdU (a different precursor). […] Fluorescently labeled AP sites were readily detected and could be quantified with respect to the fluorescent tracks of IdU and CIdU labeled DNA (see Materials and Methods).

Consider `COc1cccc2c1C(=O)c1c(O)c3c(c(O)c1C2=O)C[C@@](O)(C(=O)CO)C[C@@H]3O[C@H]1C[C@H](N)[C@H](O)[C@H](C)O1` [Dox, Doxorubicin], for which the “DNA damage (AP sites) after Mag Sweeper isolation” value in experiment [1] (0.33 and 0.66 μM Dox, 16 hours, then cells processed with Mag Sweeper, versus untreated cells) is recorded as “AP sites increased after Dox treatment”. Moreover, the “DNA damage (level of AP sites)” value in experiment [1] (0.33 and 0.66 μM Dox, harvested 16 hours after start, Dox alone, versus untreated cells) is recorded as “notably increased DNA damage”. Further, the “dose dependence of DNA damage” value in experiment [1] (0.66 versus 0.33 μM Dox, with and without Mag Sweeper) was “more damage detected with the higher dose”.
`OO` [H2O2, hydrogen peroxide]: in experiment [2], the “clustering of AP sites” value is recorded as “more common”. Besides, the “number of AP sites per 10^6 nt, slot blot analysis” value in experiment [3] stood at 7.7 AP sites per 10^6 nt. In addition, the “number of AP sites per 10^6 nt in CIdU tracks” value in experiment [4] (replicating DNA labeled after H2O2 exposure (20 μM, FIG. 3)) is on record as 20.8 per 10^6 nt. Further, the “number of AP sites per 10^6 nt in IdU tracks” value in experiment [4] (replicating DNA labeled before H2O2 exposure (20 μM, FIG. 3)) stood at 12.9 per 10^6 nt. The “increase of AP sites per 10^6 nt in replicating regions exposed to H2O2” value in experiment [4] (replicating regions versus global DNA, H2O2-exposed cells) is 50 to 150%.
